Experimental findings from patent US20020049185A1, “Malonic acid based matrix metalloproteinase inhibitors” (ROCHE DIAGNOSTICS GMBH, priority 1994, published 2002) are described below.

Residues, ends and D or L forms follow the SMILES beside them. *: point of attachment. NHOH = ON*

For one test, the target named is T1, catalytic domain (Met80-Gly242) of human neutrophil collagenase (Homo sapiens, UniProt P22894).
T1 construct: 8 nM catalytic domain (Met80-Gly242) of human neutrophil collagenase; made in house; host or cells: E. coli
T1 sequence (P22894 100-262): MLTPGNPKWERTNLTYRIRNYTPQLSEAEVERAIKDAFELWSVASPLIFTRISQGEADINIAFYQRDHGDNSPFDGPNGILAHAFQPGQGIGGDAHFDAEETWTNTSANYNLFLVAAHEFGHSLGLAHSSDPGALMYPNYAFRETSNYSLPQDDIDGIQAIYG
The experiment in a line: Enzyme assay: inhibition of cleavage of a fluorogenic substrate by the HNC catalytic domain. It counts as biochemical. The following applies: HNC (MMP-8) catalytic domain, 25° C., substrate DNP-Pro-Leu-Gly-Leu-Trp-Ala-D-Arg-NH2. How it is done:
In order to determine the inhibition of MMPs, for example HNC, the catalytic domain (isolation and purification see example 1) is incubated with inhibitors having various concentrations. Subsequently, the initial reaction rate in the conversion of a standard substrate is measured in a manner analogous to F. Grams et al. (1993)^51.
The results are evaluated by plotting the reciprocal reaction rate against the concentration of the inhibitor. The inhibition constant (Ki) is obtained as the negative section of the abscissis by the graphical method according to M. Dixon (1953)^28.
The synthetic collagenase substrate is a heptapeptide which is coupled, at the […], with DNP (dinitrophenol). Said DNP residue quenches by steric hindrance the fluorescence of the adjacent tryptophane of the heptapeptide. After cleavage of a tripeptide which includes the DNP group, the tryptophane fluorescence increases. The proteolytic cleavage of the substrate therefore can be measured by the fluorescence value.
The assay was performed at 25° C. in a freshly prepared 50 mM Tris buffer (pH 8.0) treated with dithiozone to remove traces of heavy metals. 4 mM CaCl2 was added and the buffer saturated wtih argon. Stock solutions of adamalysin II were prepared by centrifugation of the protein from an ammonium sulfate suspension and subsequent dissolution in the assay buffer Stock solutions of collagenase were diluted with the assay buffer. Enzyme concentrations were determined by uv measurements (ε280=2.8·10^4 M^−1 cm^−1, ε288·2.2 10^4 M^−1 cm^−1) and the stock solutions were stored in the cold. This solution was diluted 1 100 to obtain the final 16 nM assay concentration. The fluorogenic substrate DNP-ProLeu-Gly-Leu-Trp-Ala-D-Arg-NH2 with a Km of 52 μM was used at a concentration of 21.4 μM, for the Ki determination a 12.8 μM concentration has also been used. Substrate fluorescence was measured at an excitation and emission wavelength of λ=[…], respectively, on a spectrofluorimeter (Perkin Elmer, Model 650-40) equipped with a thermostated cell holder. Substrate hydrolysis was monitored for 10 min. immediately after adding the enzyme. All reactions were performed at least in triplicate. The Ki values of the inhibitors were calculated from the intersection point of the straight lines obtained by the plots of vo/vi vs. [concentration of inhibitor], whereas IC50 values were calculated from plots of vi/vo [concentration of inhibitor] by non-linear regression with simple robust weighting.
50 mM Tris/HCl pH 7.6 (Tris=Tris-(hydroxymethyl)-aminomethan)
8 nM catalytic domain (Met80-Gly242) of human neutrophil collagenase
10 microM DNP-Pro-Leu-Gly-Leu-Trp-Ala-D-Arg-NH2
A solution of the enzyme and inhibitor in assay buffer (25° C.) was prepared. The reaction was started directly by giving the substrate into the solution. The cleavage of the flourogenic substrate was followed by flourescence spectroscopy with an excitation and emision wavelength of 280 and 350 nm, respectively. The IC50 value was calculated as the inhibitor concentration, which is necessary to decrease the velocity of the reaction to the half in comparison to the reaction without inhibitor.
With `CC(C)CC(C(=O)NO)C(=O)NC(Cc1ccccc1)C(=O)NCc1ccccc1` (mixture of isomers) [ER074, HONH-iBM-Phe-NHBn], the midpoint of inhibition, the IC50, lay at 29 µM.

With `CC(C)CC(C(=O)NO)C(=O)NC(CO)C(=O)NCC(=O)NCc1ccccc1` (mixture of isomers) [ER059, HONH-iBM-Ser-Gly-NHBn], the IC50 (usually the midpoint of a concentration-inhibition curve) was 61 µM.

Turning to `CC(C)CC(C(=O)NO)C(=O)NC(CC(N)=O)C(=O)NCc1ccccc1` (mixture of isomers) [ER017, HONH-iBM-Asn-NHBn], the IC50 is 63 µM. This IC50 and that of the compound before are within 1.5-fold of each other.

Turning to `CC(C)CC(C(=O)NO)C(=O)NC(CC(N)=O)C(=O)NCc1cccc(N)c1` (mixture of isomers) [ER031, HONH-iBM-Asn-NHBn(m-NH2)], the 50% inhibitory concentration (IC50) was 30 µM.

As to `CC(C)CC(C(=O)NO)C(=O)NC(CO)C(=O)NCc1ccccc1` (mixture of isomers) [ER028, HONH-iBM-Ser-NHBn], the IC50 came to 40 µM.

The compound `CC(C)CC(C(=O)NO)C(=O)NC(C)C(=O)NCc1ccccc1` (mixture of isomers) [ER014, HONH-iBM-Ala-NHBn] yielded an IC50 of 58 µM.

In turn, `Cc1ccc(CCNC(=O)C(CCc2ccccc2)NC(=O)C(CC(C)C)C(=O)NO)cc1` (mixture of isomers) [ER070, HONH-iBM-Homophe-NHCH2CH2Ph(p-Me)] gave an IC50 of 1.6 µM.

The compound `CC(C)CC(C(=O)NO)C(=O)N[C@@H](C)C(=O)NCC(N)=O` (stereo partly drawn) [ER029, HONH-2-isobutylmalonyl-L-alanyl glycinamide, reference compound] came in with an IC50 of 139 µM. Against the preceding compound, the IC50 is about 87-fold higher.

The test system of another test is MMPs. The experiment in a line: Inhibition of MMPs. The class given is biochemical.
Settings: not given
With `CC(C)CC(C(=O)NO)C(=O)N[C@@H](C)C(=O)NCC(N)=O` (stereo partly drawn) [ER029, HONH-2-isobutylmalonyl-L-alanyl glycinamide, reference compound], the “inhibition of MMPs (in words)” value is given as “very poorly”.

In another test the target is collagenase (Homo sapiens, UniProt P22894). The experiment in a line: Affinity for collagenase (statement in text, HNC complex). The class given is binding.
Sequence of collagenase (P22894 101-467): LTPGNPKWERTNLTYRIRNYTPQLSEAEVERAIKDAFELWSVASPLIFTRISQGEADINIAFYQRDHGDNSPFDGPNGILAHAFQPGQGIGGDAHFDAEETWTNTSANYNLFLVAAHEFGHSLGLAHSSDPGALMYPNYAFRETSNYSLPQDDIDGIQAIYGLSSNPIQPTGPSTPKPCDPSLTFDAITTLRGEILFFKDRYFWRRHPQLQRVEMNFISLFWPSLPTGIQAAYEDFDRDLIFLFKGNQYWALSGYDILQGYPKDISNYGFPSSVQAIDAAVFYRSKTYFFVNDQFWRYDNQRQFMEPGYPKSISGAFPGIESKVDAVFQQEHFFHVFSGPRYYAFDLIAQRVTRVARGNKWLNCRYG
Settings: not given
Take `CC(C)C[C@H](NC(=O)[C@@H]1CCCN1)C(=O)NCC(=O)NO` [PLG-NHOH, L-prolyl-L-leucyl-glycin-hydroxamate] (H-Pro-Leu-Gly-{NHOH}): the “affinity for collagenase (in words)” value was “relatively weak”.
